From ChEMBL document CHEMBL6071133, “Discovery of novel penetrating peptides able to target human leukemia and lymphoma for enhanced PROTAC delivery” (Eur J Med Chem, 2024)
Calls of active or inactive are those of the source. The calls are words filed in the database; no cut-off is given here. Square brackets hold non-standard residues; d marks the D form. Peptide text beside a SMILES is read from it. Bta = N[C@@H](Cc1csc2ccccc12)C(=O)O

Key:
[1] = Drug uptake in human K562 cells assessed as membrane penetration by measuring increase in fluorescence intensity at 5 umol/L incubated for 2 hrs by flow cytometry relative to C9C; type: ADME, cell-based; conditions: k562, 2 h, 5 µM, dose 5 µmol/L
[2] = Drug uptake in human KU812 cells assessed as membrane penetration by measuring increase in fluorescence intensity at 5 umol/L incubated for 2 hrs by flow cytometry relative to C9C; type: ADME, cell-based; conditions: ku812, 2 h, 5 µM, dose 5 µmol/L
[3] = Drug uptake in human K562 cells assessed as membrane permeability at 5 umol/L incubated for 2 hrs by flow cytometry relative to C9C; type: ADME, cell-based; conditions: k562, 2 h, 5 µM, dose 5 µmol/L
[4] = Drug uptake in human KU812 cells assessed as membrane permeability at 5 umol/L incubated for 2 hrs by flow cytometry relative to C9C; type: ADME, cell-based; conditions: ku812, 2 h, 5 µM, dose 5 µmol/L
[5] = Drug uptake in human K562 cells assessed as increase in fluorescence intensity at 1 to 10 umol/L incubated for 2 hrs by cell imaging based fluorescence microscopic analysis; type: ADME; conditions: k562, 2 h, dose 1-10 µmol/L
[6] = Interaction with IMA-PROTAC assessed as induction of assembly formation by transmission electron microscopy; type: physicochemical
[7] = Cytotoxicity against human CCRF-CEM cells assessed as cell viability at 0.01 to 100 uM incubated for 48 hrs by MTT assay; type: toxicity, cell-based; conditions: dose 0.01-100 µM, read-out: Activity
[8] = Drug uptake in human KU812 cells assessed as perinuclear distribution and colocalization with nucleus at 10 umol/L incubated for 2 hrs by confocal laser microscopy; type: ADME, cell-based; conditions: ku812, 2 h, 10 µM, dose 10 µmol/L
[9] = Drug uptake in human K562 cells assessed as perinuclear distribution and colocalization with nucleus at 10 umol/L incubated for 2 hrs by confocal laser microscopy; type: ADME, cell-based; conditions: k562, 2 h, 10 µM, dose 10 µmol/L
[10] = system: K562; assay: Induction of apoptosis in human K562 cells assessed as necrotic cells at PROTAC to compound concentration ratio of 1:5 incubated for 48 hrs in presence of 3 umol/L IMA-PROTAC by AnnexinV-FITC/PI staining based flow cytometry (reference value: 0.1%); type: functional
[11] = Interaction with IMA-PROTAC assessed as induction of formation of micelle cluster with uniform and distinct spherical morphology by transmission electron microscopy; type: physicochemical
[12] = system: K562; assay: Induction of apoptosis in human K562 cells assessed as late apoptotic cells at PROTAC to compound concentration ratio of 1:5 incubated for 48 hrs in presence of 3 umol/L IMA-PROTAC by AnnexinV-FITC/PI staining based flow cytometry (reference value: 0.01%); type: functional
[13] = Drug uptake in human K562 cells assessed as fluorescence intensity at 5 umol/L pretreated with endocytosis inhibitor, methyl-beta-cyclodextrin for 0.5 hrs followed by incubation with compound for 2 hrs by FACS analysis; type: ADME, cell-based; conditions: k562, 2 h, 5 µM, dose 5 µmol/L
[14] = system: K562; assay: Induction of cell cycle arrest in human K562 cells assessed as accumulation of cells at G2/M phase at PROTAC to compound concentration ratio of 1:5 incubated for 48 hrs in presence of 3 umol/L IMA-PROTAC by propidium iodide staining based flow cytometry; type: functional
[15] = system: K562; assay: Increase in membrane permeability of IMA-PROTAC in human K562 cells assessed as potentiation of IMA-PROTAC-induced Bcr-Abl degradation at PROTAC to compound concentration ratio of 1:5 to 1:3 incubated for 48 hrs in presence of 3 umol/L IMA-PROTAC by western blot analysis; type: functional, cell-based
[16] = Increase in membrane permeation of IMA-PROTAC in human K562 cells assessed as increase in intracellular content of IMA-PROTAC incubated for 3 hrs by HPLC-MRM-MS analysis relative to control; type: functional
[17] = Cytotoxicity against human KU812 cells assessed as cell viability at 0.01 to 100 uM incubated for 48 hrs by MTT assay; type: toxicity, cell-based; conditions: dose 0.01-100 µM, read-out: Activity
[18] = Stability of the compound in fetal bovine serum assessed as parent compound remaining measured after 8 hrs by HPLC-MS analysis; type: ADME, cell-free, Bos taurus; conditions: cattle, read-out: Stability
[19] = Drug uptake in human K562 cells assessed as increase in fluorescence intensity at 5 umol/L pretreated with endocytosis inhibitor, nystatin for 0.5 hrs followed by incubation with compound for 2 hrs by FACS analysis; type: ADME, cell-based; conditions: k562, 2 h, 5 µM, dose 5 µmol/L
[20] = Drug uptake in human K562 cells assessed as fluorescence intensity at 5 umol/L pretreated with endocytosis inhibitor, chlorpromazine for 0.5 hrs followed by incubation with compound for 2 hrs by FACS analysis; type: ADME, cell-based; conditions: k562, 2 h, 5 µM, dose 5 µmol/L
[21] = Drug uptake in human K562 cells assessed as increase in fluorescence intensity at 1 to 10 uM incubated for 2 hrs by flow cytometry; type: ADME, cell-based; conditions: k562, 2 h, dose 1-10 µM
[22] = Stability of the compound in fetal bovine serum assessed as parent compound remaining measured after 36 hrs by HPLC-MS analysis; type: ADME, cell-free, Bos taurus; conditions: cattle, read-out: Stability
[23] = Drug uptake in human K562 cells assessed as increase in fluorescence intensity at 5 umol/L measured for 5 to 30 mins by flow cytometry; type: ADME, cell-based; conditions: k562, 5 µM, TDE = time-dependent effect, time 5-30 min, dose 5 µmol/L
[24] = system: K562; assay: Induction of apoptosis in human K562 cells assessed as early apoptotic cells at PROTAC to compound concentration ratio of 1:5 incubated for 48 hrs in presence of 3 umol/L IMA-PROTAC by AnnexinV-FITC/PI staining based flow cytometry (reference value: 0.03%); type: functional
[25] = system: K562; assay: Potentiation of IMA-PROTAC-induced cytotoxicity against human K562 cells assessed as inhibition of cell growth at compound: IMA-PROTAC concentration ratio of 5:1 incubated for 48 hrs in presence of 3 umo/L IMA-PROTAC by MTT assay; type: functional, cell-based
[26] = Drug uptake in human K562 cells assessed as fluorescence intensity at 5 umol/L pretreated with endocytosis inhibitor, chloroquine for 0.5 hrs followed by incubation with compound for 2 hrs by FACS analysis; type: ADME, cell-based; conditions: k562, 2 h, 5 µM, dose 5 µmol/L
[27] = Stability of the compound in fetal bovine serum assessed as parent compound remaining measured after 12 hrs by HPLC-MS analysis; type: ADME, cell-free, Bos taurus; conditions: cattle, read-out: Stability
[28] = Drug uptake in human KU812 cells assessed as membrane permeability by measuring increase in fluorescence intensity at 5 umol/L incubated for 2 hrs by flow cytometry relative to THP-1 cells; type: ADME, cell-based; conditions: ku812, 2 h, 5 µM, dose 5 µmol/L
[29] = Drug uptake in human K562 cells assessed as increase in fluorescence intensity at 5 umol/L measured for 60 to 240 mins by flow cytometry; type: ADME, cell-based; conditions: k562, 5 µM, TDE = time-dependent effect, time 60-240 min, dose 5 µmol/L
[30] = Cytotoxicity against human K562 cells assessed as cell viability at 0.01 to 100 uM incubated for 48 hrs by MTT assay; type: toxicity, cell-based; conditions: dose 0.01-100 µM, read-out: Activity
[31] = system: K562; assay: Induction of apoptosis in human K562 cells assessed as viable cells at PROTAC to compound concentration ratio of 1:5 incubated for 48 hrs in presence of 3 umol/L IMA-PROTAC by AnnexinV-FITC/PI staining based flow cytometry (reference value: 99.85%); type: functional
[32] = Drug uptake in human KU812 cells assessed as increase in fluorescence intensity at 1 to 10 uM incubated for 2 hrs by flow cytometry; type: ADME, cell-based; conditions: ku812, 2 h, dose 1-10 µM
[33] = Drug uptake in human KU812 cells assessed as increase in fluorescence intensity at 1 to 10 umol/L incubated for 2 hrs by cell imaging based fluorescence microscopic analysis; type: ADME; conditions: ku812, 2 h, dose 1-10 µmol/L
[34] = Drug uptake in human K562 cells assessed as membrane permeability by measuring increase in fluorescence intensity at 5 umol/L incubated for 2 hrs by flow cytometry relative to THP-1 cells; type: ADME, cell-based; conditions: k562, 2 h, 5 µM, dose 5 µmol/L
[35] = Drug uptake in human CCRF-CEM cells assessed as perinuclear distribution and colocalization with nucleus at 10 umol/L incubated for 2 hrs by confocal laser microscopy; type: ADME, cell-based; conditions: 10 µM, dose 10 µmol/L
[36] = Cytotoxicity against human THP-1 cells assessed as cell viability at higher concentrations incubated for 48 hrs by MTT assay; type: toxicity, cell-based; conditions: read-out: Activity
[37] = system: K562; assay: Increase in membrane permeability of IMA-PROTAC in human K562 cells assessed as potentiation of IMA-PROTAC-induced inhibition of STAT5 phosphorylation at PROTAC to compound concentration ratio of 1:5 to 1:3 incubated for 48 hrs in presence of 3 umol/L IMA-PROTAC by western blot analysis; type: functional, cell-based
[38] = Drug uptake in human CCRF-CEM cells assessed as membrane penetration by measuring increase in fluorescence intensity at 5 umol/L incubated for 2 hrs by flow cytometry relative to C9C; type: ADME, cell-based; conditions: 5 µM, dose 5 µmol/L

SMILES: CC(C)C[C@@H]1NC(=O)[C@H](Cc2c[nH]c3ccccc23)NC(=O)[C@H](Cc2ccccc2)NC(=O)[C@H](Cc2ccccc2)NC(=O)[C@H](CCCNC(=N)N)NC(=O)[C@H](CCCCN)NC(=O)[C@H](CCC(=O)O)NC(=O)[C@H](CO)NC(=O)[C@H](CCCNC(=N)N)NC1=O (cyclo(EKRFFWLRS))
- fold change (FC) [1]: 5.28
- fold change (FC) [2]: 5.65

SMILES: CC(C)C[C@H](NC(=O)[C@H](Cc1csc2ccccc12)NC(=O)[C@H](Cc1ccc(O)cc1)NC(=O)[C@H](Cc1ccccc1)NC(=O)[C@H](CCCNC(=N)N)NC(=O)[C@@H](N)CS)C(=O)N[C@@H](CCCNC(=N)N)C(=O)N[C@@H](CO)C(=O)N[C@@H](CS)C(=O)O (H-CRFY[Bta]LRSC-OH)
- Drug uptake [3]: 65%
- Drug uptake [4]: 65%

SMILES: CC(C)C[C@@H]1NC(=O)[C@H](Cc2c[nH]c3ccccc23)NC(=O)[C@H](Cc2ccc(O)cc2)NC(=O)[C@H](Cc2ccccc2)NC(=O)[C@H](CCCNC(=N)N)NC(=O)[C@H](CCCCN)NC(=O)[C@H](CCC(=O)O)NC(=O)[C@H](CO)NC(=O)[C@H](CCCNC(=N)N)NC1=O (cyclo(EKRFYWLRS))
- Drug uptake [5]: Active
- fold change (FC) [1]: 9.24
- Activity [6]: Not Active
- viability at 48 h, up to 100 µM [7]: > 75%
- Drug uptake [8]: Active
- Drug uptake [9]: Active
- Activity [10]: 0.06%
- Activity [11]: Not Active
- Activity [12]: 1.58%
- Drug uptake [13]: Not Active
- Activity [14]: Active
- Activity [15]: Active
- fold change (FC) [16]: 2.05
- viability at 48 h, up to 100 µM [17]: > 75%
- remaining at 8 h [18]: 100%
- Drug uptake [19]: Active
- Drug uptake [20]: Not Active
- Drug uptake [21]: Dose-Dependent Effect
- remaining at 36 h [22]: 75%
- Drug uptake [23]: Tde
- Activity [24]: 10.71%
- Activity [25]: inactive
- Drug uptake [26]: Not Active
- remaining at 12 h [27]: 80%
- fold change (FC) [28]: 11.7
- Drug uptake [29]: Tde
- viability at 48 h, up to 100 µM [30]: > 75%
- Activity [31]: 87.64%
- Drug uptake [32]: Dose-Dependent Effect
- Drug uptake [33]: Active
- fold change (FC) [2]: 7.99
- fold change (FC) [34]: 33.3
- Drug uptake [35]: Active
- viability at 48 h [36]: > 75%
- Activity [37]: Active

SMILES: CC(C)C[C@H](NC(=O)[C@H](Cc1csc2ccccc12)NC(=O)[C@H](Cc1ccc(O)cc1)NC(=O)[C@H](Cc1ccccc1)NC(=O)CNC(=O)[C@@H](N)CS)C(=O)N[C@@H](CCCNC(=N)N)C(=O)N[C@@H](CO)C(=O)N[C@@H](CS)C(=O)O (H-CGFY[Bta]LRSC-OH)
- fold change (FC) [38]: 4.78
